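These data come from cells grown in 96-well plates and exposed to compound for 48 hours at five concentrations. GI50 = concentration required for 50% inhibition of growth. Definition used: TGI = concentration required for complete inhibition of growth.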
Tests used:
Experiment in all cases: growth of human tumour cells (NCI), 48 h
SNB-75 CNS = test system: SNB-75 CNS
HCC-2998 colon = test system: HCC-2998 colon
NCI/ADR-RES ovarian = test system: NCI/ADR-RES ovarian
NCI-H460 lung = test system: NCI-H460 lung
DU-145 prostate = test system: DU-145 prostate
IGROV1 ovarian = test system: IGROV1 ovarian
MALME-3M melanoma = test system: MALME-3M melanoma
RPMI-8226 leukemia = test system: RPMI-8226 leukemia
MCF7 breast = test system: MCF7 breast
MDA-MB-231 breast = test system: MDA-MB-231 breast
T-47D breast = test system: T-47D breast
NCI-H23 lung = test system: NCI-H23 lung
UACC-62 melanoma = test system: UACC-62 melanoma
SK-OV-3 ovarian = test system: SK-OV-3 ovarian
NCI-H522 lung = test system: NCI-H522 lung
KM12 colon = test system: KM12 colon
PC-3 prostate = test system: PC-3 prostate
TK-10 renal = test system: TK-10 renal
OVCAR-4 ovarian = test system: OVCAR-4 ovarian
ACHN renal = test system: ACHN renal
CCRF-CEM leukemia = test system: CCRF-CEM leukemia
HCT-15 colon = test system: HCT-15 colon
RXF 393 renal = test system: RXF 393 renal
SK-MEL-28 melanoma = test system: SK-MEL-28 melanoma
LOX IMVI melanoma = test system: LOX IMVI melanoma
HOP-62 NSCLC = test system: HOP-62 NSCLC
U251 CNS = test system: U251 CNS
OVCAR-3 ovarian = test system: OVCAR-3 ovarian
SN12C renal = test system: SN12C renal
COLO 205 colon = test system: COLO 205 colon
HOP-92 NSCLC = test system: HOP-92 NSCLC
SF-295 CNS = test system: SF-295 CNS
SF-539 CNS = test system: SF-539 CNS
A498 renal = test system: A498 renal
OVCAR-8 ovarian = test system: OVCAR-8 ovarian
K-562 leukemia = test system: K-562 leukemia
EKVX NSCLC = test system: EKVX NSCLC
UACC-257 melanoma = test system: UACC-257 melanoma
HT29 colon = test system: HT29 colon
MOLT-4 leukemia = test system: MOLT-4 leukemia
UO-31 renal = test system: UO-31 renal
BT-549 breast = test system: BT-549 breast
CAKI-1 renal = test system: CAKI-1 renal
HS 578T breast = test system: HS 578T breast
SNB-19 CNS = test system: SNB-19 CNS
SW-620 colon = test system: SW-620 colon
M14 melanoma = test system: M14 melanoma
SK-MEL-2 melanoma = test system: SK-MEL-2 melanoma
SK-MEL-5 melanoma = test system: SK-MEL-5 melanoma
HL-60(TB) leukemia = test system: HL-60(TB) leukemia
MDA-MB-435 = test system: MDA-MB-435
OVCAR-5 ovarian = test system: OVCAR-5 ovarian
786-0 renal = test system: 786-0 renal
A549 NSCLC = test system: A549 NSCLC

## O=C1/C(=C/c2ccccc2)CN(C(=O)CCN2CCC(=NO)CC2)C/C1=C\c1ccccc1
SNB-75 CNS
  GI50: 2.85 µM
  TGI: 11.5 µM
HCC-2998 colon
  GI50: 1.73 µM
  TGI: 3.32 µM
NCI/ADR-RES ovarian
  GI50: 2.49 µM
  TGI: 8.68 µM
NCI-H460 lung
  GI50: 2.43 µM
  TGI: 5.83 µM
DU-145 prostate
  GI50: 1.8 µM
  TGI: 3.27 µM
IGROV1 ovarian
  GI50: 1.69 µM
  TGI: 3.35 µM
MALME-3M melanoma
  GI50: 2.01 µM
  TGI: 5.18 µM
RPMI-8226 leukemia
  GI50: 0.32 µM
  TGI: 1.23 µM
MCF7 breast
  GI50: 0.355 µM
  TGI: 1.98 µM
MDA-MB-231 breast
  GI50: 1.83 µM
  TGI: 3.47 µM
T-47D breast
  GI50: 2.68 µM
  TGI: 7.91 µM
NCI-H23 lung
  GI50: 1.89 µM
  TGI: 4.28 µM
UACC-62 melanoma
  GI50: 1.7 µM
  TGI: 3.77 µM
SK-OV-3 ovarian
  GI50: 2.51 µM
  TGI: 7.09 µM
NCI-H522 lung
  GI50: 1.6 µM
  TGI: 3.36 µM
KM12 colon
  GI50: 0.663 µM
  TGI: 2.23 µM
PC-3 prostate
  GI50: 1.52 µM
  TGI: 3.87 µM
TK-10 renal
  GI50: 2.38 µM
  TGI: 7.79 µM
OVCAR-4 ovarian
  GI50: 2.15 µM
  TGI: 4.69 µM
ACHN renal
  GI50: 1.85 µM
  TGI: 3.91 µM
CCRF-CEM leukemia
  GI50: 0.758 µM
  TGI: 9.33 µM
HCT-15 colon
  GI50: 1.39 µM
  TGI: 3.27 µM
RXF 393 renal
  GI50: 1.56 µM
  TGI: 2.96 µM
SK-MEL-28 melanoma
  GI50: 2.19 µM
  TGI: 5.29 µM
LOX IMVI melanoma
  GI50: 0.366 µM
  TGI: 1.41 µM
HOP-62 NSCLC
  GI50: 1.79 µM
  TGI: 3.64 µM
U251 CNS
  GI50: 1.51 µM
  TGI: 3.49 µM
OVCAR-3 ovarian
  GI50: 1.66 µM
  TGI: 3.15 µM
SN12C renal
  GI50: 1.86 µM
  TGI: 4.03 µM
COLO 205 colon
  GI50: 1.68 µM
  TGI: 3.29 µM
HOP-92 NSCLC
  GI50: 2.03 µM
  TGI: 6.4 µM
SF-295 CNS
  GI50: 2.08 µM
  TGI: 4.64 µM
SF-539 CNS
  GI50: 1.91 µM
  TGI: 3.85 µM
A498 renal
  GI50: 1.67 µM
  TGI: 3.9 µM
OVCAR-8 ovarian
  GI50: 1.31 µM
  TGI: 3.29 µM
K-562 leukemia
  GI50: 0.396 µM
  TGI: > 100 µM
EKVX NSCLC
  GI50: 2.81 µM
  TGI: 9.01 µM
UACC-257 melanoma
  GI50: 1.92 µM
  TGI: 4.7 µM
HT29 colon
  GI50: 1.21 µM
  TGI: 3.61 µM
MOLT-4 leukemia
  GI50: 0.686 µM
  TGI: 11.3 µM
UO-31 renal
  GI50: 1.4 µM
  TGI: 2.71 µM
BT-549 breast
  GI50: 1.63 µM
  TGI: 3.27 µM
CAKI-1 renal
  GI50: 1.61 µM
  TGI: 3.01 µM
HS 578T breast
  GI50: 3.09 µM
  TGI: 14.6 µM
SNB-19 CNS
  GI50: 1.83 µM
  TGI: 4.06 µM
SW-620 colon
  GI50: 0.322 µM
  TGI: 1.3 µM
M14 melanoma
  GI50: 1.5 µM
  TGI: 3.37 µM
SK-MEL-2 melanoma
  GI50: 4.56 µM
  TGI: 16.2 µM
SK-MEL-5 melanoma
  GI50: 1.64 µM
  TGI: 2.99 µM
HL-60(TB) leukemia
  GI50: 2.59 µM
  TGI: 8.33 µM
MDA-MB-435
  GI50: 1.42 µM
  TGI: 3.19 µM
OVCAR-5 ovarian
  GI50: 1.8 µM
  TGI: 3.58 µM
786-0 renal
  GI50: 1.98 µM
  TGI: 4.51 µM
A549 NSCLC
  GI50: 3.05 µM

From PubChem BioAssay (NCI)
